This is an account of results in EP1501797B1, “3-(SUBSTITUTED AMINO)-1H-INDOLE-2-CARBOXYLIC ACID ESTER AND 3-(SUBSTITUTED AMINO)-BENZO[B]THIOPHENE-2-CARBOXYLIC ACID ESTER DERIVATIVES AS INTERLEUKIN-4 GENE EXPRESSION INHIBITORS” (Aventis Pharmaceuticals Inc., priority 2002, dated 2003).

The subject of one assay is IL-13. Description: In vivo ovalbumin (OVA) mouse model, BALF IL-13. Particulars: for IL-13 pg/ml (± SEM): 30 minutes before OVA challenge, BALF 24 hours, vehicle 120.2 ± 19.8. Also noted: species or system mice. The procedure:
This model is designed to determine the ability of a test article to modulate an antigen-induced pulmonary inflammatory cell accumulation in sensitized Balb/c mice from Charles River Laboratories. The mice are given a two week time period from arrival date prior to sensitizations.
On days 0, 7, 14, each animal is injected intraperitoneal (i.p.) with a 0.2 ml Ovalbumin Hydragel solution. Each animal receives 10 µg of Ovalbumin in 0.2 mL of Hydragel, aluminum hydroxide adsorptive gel containing 2% aluminum oxide. […] On day 22, BALF samples are collected from one group of animals and used for cytokine analysis. On day 24, BALF is obtained from a second group of animals and used for differential cell counts.
Test System: Female Babl/cJ mice (Jackson Laboratories), approximately 6-9 weeks old, each weighing approximately 20 to 25 grams, are divided into ten animals per group.
Sensitization Regimen: Mice are sensitized by an intraperitoneal injection of 10 µg ovalbumin (OVA) mixed in 4 mg aluminum hydroxide Al(OH)3 gel suspension in 0.2 ml sterile saline on Days 0, 7 and 14. This suspension is prepared one hour before intraperitoneal injection into each mouse. The animals are ready for OVA challenge on Day 21.
Antigen Challenge: Animals are exposed to aerosolized OVA on day 21 (5% w/v in sterile saline) for 20 minutes. The aerosol is generated by a PARI-Master nebulizer, the outlet of which is connected to a small Plexiglas® chamber containing the animals. Bronchoalveolar lavage is performed on Day 22.
Method of Study Performance: On day 24, 72 hours following aerosol OVA exposure, a separate group of animals are anesthetized with urethane (0.15 - 0.2 gm/kg) and the trachea is exposed and cannulated. […] Total cells and eosinophils are determined using a Technicon Hl and cytoslides, respectively. […]
Mice (12 animals per group) are sensitized with 0.2 ml of an AlOH3 hydrogel suspension (2% AlOH3) containing 50 µg/ml ovalbumin on days 0, 7 and 14. […] After the OVA challenge for 24 hours, the mice underwent bronchoalveolar lavage and IL-4 and IL-13 levels in the BALF are determined by ELISA. […]

A further assay relates to eosinophil. Description: OVA-induced lung inflammation in Brown Norway rats, eosinophil influx into bronchoalveolar fluid. Particulars: Rattus norvegicus, ip, intraperitoneal injection, FIG. 2, read-out: ED50, inhibition of the influx of eosinophil. Format: in vivo. How it is done: Rat model was very similar to the mouse models described earlier. Briefly, the lung inflammatory model described by Haczku et al. was used with minor modifications (Haczku A., et al., Immunology, (1996), 88, 247-251). Male Brown Norway rats, weighing 160-200 grams were sensitized with intraperitoneal injection of 1ml of a suspension containing ovalbumin (1 mg) and Al(OH)3 (100 mg) on days 1, 2 and 3. Three weeks later, the rats were treated with vehicle or drugs via intraperitoneal injections. One hour later, the rats were challenged with ovalbumin inhalation (1% solution, 10 mg/ml in sterilized saline) for 20 minutes in a 10 liter Plexiglas chamber which was connected to a DeVilbiss (Ultra-NEB®99) nebulizer with a carrier air flow of 1 liter/minute.
Results of dose response studies of 3-(4-pyridinylamino)-1H-indole-2-carboxylic acid on eosinophil influx into the bronchoalveolar fluid of ovalbumin sensitized and challenged Brown Norway rats are depicted as bar graphs in FIG. 2. Single dose of cyclosporin A (CsA) and dexamethasone (Dex) were also included as reference standards.

For orientation: ED50 means the midpoint of the dose-response relation. As to `O=C(O)c1[nH]c2ccccc2c1Nc1ccncc1` [Example 28, 3-(4-Pyridinylamino)-1H-indole-2-carboxylic acid], the figures for the “IL-13 pg/ml (± SEM)” value with IL-13 (10 mg/kg intranasal) and in the assay with IL-13 (30 mg/kg intranasal) were 59.9 ± 12.7 pg/mL and 15.1 ± 7.1 pg/mL, respectively. Moreover, the ED50 with IL-13 (Mus musculus, mice, intranasally, FIG. 1, read-out: ED50, allergen-induced IL-13 levels in the BALF) was around 10 mg/kg; in the assay on eosinophil, 10.1 mg/kg.
